Entries after “also recorded” stand apart in the source; their conditions may differ. Read-outs that look alike come from different tables or passages of the source.
What was measured:
[1] = Phase 1/2a study, pharmacokinetics; format: in vivo, human
Method: This is a Phase 1/2a, open-label, multicenter, first-in-human trial to evaluate the safety and tolerability, PK, PD, and preliminary efficacy of CLN-081 in patients with non-small cell lung cancer (NSCLC) harboring epidermal growth factor receptor (EGFR) exon 20 insertion mutations.
PK analysis has been performed with CLN-081 plasma concentrations determined at pre-dose, 0.5, 1, 2, 3, 4, 6, 8 and 24 hour % post initial dose on Cycle (C) I Day (D) I and C1D15. […] CLN-081 has typically been rapidly absorbed with tmax values ranging from 0.5 to 2 hours and a mean average terminal phase elimination half-life (t1/2) of approximately 4 hours.

[2] = system: cells expressing EGFR with exon 20 insertion mutations; settings: cells expressing EGFR with exon 20 insertion mutations compared with cells expressing WT EGFR; cited from earlier work
[3] = system: mutant EGFRs that possess in-frame insertion mutations in exon 20; settings: A763_Y764insFQEA, V769_D770insASV, D770_N771insG, D770_N771insSVD, H773_V774insNPH, H773_V774insPH; cited from earlier work
[4] = system: subcutaneously-implanted tumors expressing EGFR with G719A+T790M mutations; settings: cited from earlier work
[5] = system: KRAS mutant cell lines, NCI-H23 cells, and NCI-H460 cells; settings: EGFR-independent cell growth; cited from earlier work
[6] = unbound, 100 mg BID, patient 0102-001
[7] = unbound, 100 mg BID, patient 0104-005
[8] = unbound, 100 mg BID, patient 0701-001

C=CC(=O)N[C@H]1C=C(C)c2c(-c3cnc4ccccc4c3)c3c(N)ncnc3n2C1 [Compound 1, (S)—N-(4-amino-6-methyl-5-(quinolin-3-yl)-8,9-dihydropyrimido[5,4-b]indolizin-8-yl)acrylamide]
change in systemic exposure levels / drug accumulation ([1]; C1D1 to C1D15, listed as CLN-081): Minimal to no increase; also recorded: no evidence of meaningful drug accumulation | dose proportionality of Cmax and AUC ([1]; across the dose range tested): dose proportional increase | half-life ([1]; human, plasma, oral, 100 mg, 100 mg BID, patient 0102-001, read-out: T1/2 (converted)): 216 min | half-life ([1]; human, plasma, oral, 100 mg, 100 mg BID, patient 0104-005, read-out: T1/2 (converted)): 366 min | half-life ([1]; human, plasma, oral, 100 mg, 100 mg BID, patient 0701-001, read-out: T1/2 (converted)): 216 min | half-life ([1]; human, plasma, po, oral BID, read-out: mean average terminal phase elimination half-life (t1/2) (converted)): ~240 min | Tmax ([1]; human, plasma, oral, 30-100 mg BID): 0.5 to 2 h | uAUC* [1, 6]: 957 ng·h/mL | uCmax [1, 6]: 260 ng/mL | uAUC* [1, 7]: 1213 ng·h/mL | uCmax [1, 7]: 274 ng/mL | uAUC* [1, 8]: 1353 ng·h/mL | uCmax [1, 8]: 418 ng/mL | AUC0-8hr versus dose ([1]; unbound, 30 to 100 mg BID): generally increase with increasing dose | Cmax versus dose ([1]; unbound, 30 to 100 mg BID): generally increase with increasing dose | inhibitory effect on proliferation [2]: more potent and selective inhibitory effect | potency in inhibiting the phosphorylation of mutant EGFRs [3]: intensive cellular potency | tumor growth inhibition ([4]; dose-dependent): significant tumor growth inhibition effects | body weight loss, fecal abnormalities, or skin abnormalities ([4]; mouse, in vivo): not effected at a cost of body weight loss, fecal abnormalities, or skin abnormalities | GI50 [5]: > 3000 nM
